From article PMC10892041, “Vanadium Complexes with Thioanilide Derivatives of Amino Acids: Inhibition of Human Phosphatases and Specificity in Various Cell Models of Metabolic Disturbances” (Pharmaceuticals, 2024)
Read-outs that look alike come from different tables or passages of the source.

Experiments:
PP2A = PP2A (Homo sapiens, UniProt P67775); assay: Inhibition of human recombinant non-tyrosine phosphatase PP2A (DiFMUP); format: biochemical
Experimental: (§1) For the inhibition assay of non-tyrosine phosphatases, human recombinant proteins were used (Sigma-Aldrich). The reactions were performed in black opaque 384-well microplates (PerkinElmer). To the solution of the tested complexes, an equal volume of a test solution of phosphatase was added. CDC25A were diluted in reaction buffer to the final concentration of 400 ng/mL as for tyrosine phosphatases (described in the section above), and PPA2 (final 0.5 U/mL) was diluted in 50 mM Tris-HCl, 0.05% Tween-20, and 125 µg/mL protease-free bovine serum albumin (pH 7.0). These solutions were dispensed using an automated injector. After 10 min, a solution of phosphate 6,8-difluoro-4-methyl (DiFMUP; Thermo Fisher Scientific) was added for the PPA2 sample until the final concentration 0.1 mM. For CDC25A samples, 3-O-methylfluorescein phosphate for the final concentration of 0.2 mM was added. Samples were incubated for 180 min at 23 °C, and then the measurements of fluorescence intensity (excitation 355 and emission 560 nm) were performed on a multifunctional plate reader POLARstar Omega (BMG Labtech). Assays were performed in triplicate. The results were expressed as percent of inhibition of untreated control (enzyme with vehicle solvent only).

SHP1 = target: T1, SHP1 (Homo sapiens, UniProt P29350); assay: Inhibition of human recombinant tyrosine phosphatase SHP1 (DiFMUP fluorescence); format: biochemical; details: for Inhibition of SHP1, percentage of inhibition of the control: 1 µM, control solvent only, SD did not exceed 6%; for Log IC50 ± SD SHP1: logarithm of IC50
T1 construct: purchased Sigma-Aldrich
Experimental: (§2) To determine the ability of the tested compounds for inhibition tyrosine phosphatases, human recombinant proteins were used (Sigma-Aldrich). The reactions were performed in black opaque 384-well microplates (PerkinElmer, Waltham, MA, USA). An equal volume of phosphatase solution in a reaction buffer (25 mM of 3-(N-morpholino)propanesulfonic acid (MOPS), 50 mM NaCl, 1 mM dithiothreitol (DTT), and 0.05% Tween-20 (pH 7.0)) was added to the solution of the tested compound on microplate. These solutions were dispensed using an automated injector. The following final concentrations of the tested phosphatases were used: PTP1B 50 ng/mL, SHP1 400 ng/mL, SHP2 50 ng/mL, LAR 5 ng/mL, and PTPRA 100 ng/mL. After 10 min, a solution of phosphate 6,8-difluoro-4-methyl (DiFMUP; Thermo Fisher Scientific) was added until its final concentration was 0.1 mM. Samples were incubated for 20 miN at 23 °C, and then the measurements of fluorescence intensity (excitation 355 and emission […]) were performed on a multifunctional plate reader POLARstar Omega (BMG Labtech, Ortenberg, Germany). Assays were performed in triplicate. For the screening assays, the final concentration of the tested compounds was 1 µM. The results were expressed as percent inhibition of untreated control (enzyme with vehicle only) for the screening tests. […] IC50 were calculated using GraphPad Prism version 6.0 software (GraphPad Software, Boston, MA, USA).

CDC25A = target: T2, CDC25A (Homo sapiens, UniProt P30304); assay: Inhibition of human recombinant non-tyrosine phosphatase CDC25A (3-O-methylfluorescein phosphate); format: biochemical
T2 construct: purchased Sigma-Aldrich
T2 sequence (P30304 1-524): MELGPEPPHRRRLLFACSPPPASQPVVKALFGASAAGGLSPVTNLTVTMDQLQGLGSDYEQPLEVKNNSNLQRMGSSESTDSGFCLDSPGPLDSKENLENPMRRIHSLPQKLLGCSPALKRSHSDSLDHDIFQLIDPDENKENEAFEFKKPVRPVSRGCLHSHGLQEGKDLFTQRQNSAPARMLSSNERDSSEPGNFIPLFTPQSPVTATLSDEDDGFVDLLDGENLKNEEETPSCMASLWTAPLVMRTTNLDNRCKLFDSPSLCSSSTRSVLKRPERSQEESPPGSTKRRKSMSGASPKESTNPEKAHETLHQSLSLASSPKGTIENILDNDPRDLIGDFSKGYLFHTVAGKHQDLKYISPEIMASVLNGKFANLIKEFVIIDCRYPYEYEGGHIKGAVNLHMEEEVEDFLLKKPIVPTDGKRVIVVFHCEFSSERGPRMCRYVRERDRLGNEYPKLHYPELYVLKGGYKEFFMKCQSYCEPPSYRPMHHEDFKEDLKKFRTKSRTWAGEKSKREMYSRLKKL
Experimental: as §1

SHP2 = target: T3, SHP2 (Homo sapiens, UniProt Q06124); assay: Inhibition of human recombinant tyrosine phosphatase SHP2 (DiFMUP fluorescence); format: biochemical; details: for Inhibition of SHP2, percentage of inhibition of the control: 1 µM, control solvent only, SD did not exceed 6%
T3 construct: purchased Sigma-Aldrich
T3 sequence (Q06124 1-593): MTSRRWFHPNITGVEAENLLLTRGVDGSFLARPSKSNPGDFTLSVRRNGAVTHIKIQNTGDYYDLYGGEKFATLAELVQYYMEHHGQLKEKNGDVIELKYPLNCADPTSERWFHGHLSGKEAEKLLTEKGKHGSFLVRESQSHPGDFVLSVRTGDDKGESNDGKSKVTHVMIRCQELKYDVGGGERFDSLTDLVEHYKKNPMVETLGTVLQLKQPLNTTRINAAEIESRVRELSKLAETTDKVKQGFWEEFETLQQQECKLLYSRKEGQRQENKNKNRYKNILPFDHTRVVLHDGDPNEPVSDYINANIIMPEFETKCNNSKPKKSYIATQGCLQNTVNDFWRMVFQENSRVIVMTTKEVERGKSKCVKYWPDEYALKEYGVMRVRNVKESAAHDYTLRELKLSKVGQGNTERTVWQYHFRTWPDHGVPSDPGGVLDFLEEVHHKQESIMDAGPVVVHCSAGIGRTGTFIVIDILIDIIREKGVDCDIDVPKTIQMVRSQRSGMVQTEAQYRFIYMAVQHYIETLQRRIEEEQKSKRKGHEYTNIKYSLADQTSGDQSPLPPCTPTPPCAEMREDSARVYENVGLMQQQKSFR
Experimental: as §2

PTP1B = target: T4, PTP1B (Homo sapiens, UniProt P18031); assay: Inhibition of human recombinant tyrosine phosphatase PTP1B (DiFMUP fluorescence); format: biochemical; details: for Inhibition of PTP1B, percentage of inhibition of the control: 1 µM, control solvent only, SD did not exceed 6%; for Log IC50 ± SD PTP1B: logarithm of IC50
T4 construct: purchased Sigma-Aldrich
T4 sequence (P18031 1-435): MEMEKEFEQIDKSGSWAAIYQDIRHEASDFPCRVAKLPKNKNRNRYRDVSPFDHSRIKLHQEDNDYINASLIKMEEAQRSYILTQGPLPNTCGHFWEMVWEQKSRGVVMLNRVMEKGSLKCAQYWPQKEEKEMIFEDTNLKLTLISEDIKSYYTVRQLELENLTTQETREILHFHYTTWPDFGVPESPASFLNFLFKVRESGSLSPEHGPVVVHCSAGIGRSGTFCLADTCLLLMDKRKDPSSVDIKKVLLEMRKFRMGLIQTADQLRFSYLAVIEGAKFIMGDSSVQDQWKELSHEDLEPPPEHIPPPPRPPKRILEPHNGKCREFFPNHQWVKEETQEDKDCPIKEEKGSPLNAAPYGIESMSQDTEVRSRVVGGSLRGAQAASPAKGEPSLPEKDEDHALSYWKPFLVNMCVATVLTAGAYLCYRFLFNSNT
Experimental: as §2

LAR = target: T5, LAR (Homo sapiens, UniProt P10586); assay: Inhibition of human recombinant tyrosine phosphatase LAR (DiFMUP fluorescence); format: biochemical; details: for Inhibition of LAR, percentage of inhibition of the control: 1 µM, control solvent only, SD did not exceed 6%
T5 sequence (P10586 1352-1607 limits assumed): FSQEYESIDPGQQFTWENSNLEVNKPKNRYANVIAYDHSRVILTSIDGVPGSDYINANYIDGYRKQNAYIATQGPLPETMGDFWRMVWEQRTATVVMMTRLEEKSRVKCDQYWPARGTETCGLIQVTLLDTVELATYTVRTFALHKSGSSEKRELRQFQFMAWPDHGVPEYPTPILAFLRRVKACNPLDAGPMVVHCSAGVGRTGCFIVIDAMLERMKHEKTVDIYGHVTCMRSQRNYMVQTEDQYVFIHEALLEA
Experimental: as §2

myocytes C2C12 = assay: Viability of myocytes C2C12 after 24 h incubation (resazurin-based reagent); details: 50 µM
Experimental: Simultaneously with glucose consumption tests, the viability of myocytes C2C12 was examined due to their prolonged 24 h incubation with vanadium complexes.
Prolonged incubation of the cells with vanadium complexes, as was the case during the study of the effect on glucose consumption, more closely corresponds to the actual conditions of clinical use, also allowing for the identification of possible cytotoxic effects. […] A Resazurin-based reagent is reduced proportionally to the metabolic activity of cells as a result of the transference of electrons from NADPH+H^+, the amount of which strictly depends on glucose metabolism.

Sequence of PP2A (P67775 whole entry): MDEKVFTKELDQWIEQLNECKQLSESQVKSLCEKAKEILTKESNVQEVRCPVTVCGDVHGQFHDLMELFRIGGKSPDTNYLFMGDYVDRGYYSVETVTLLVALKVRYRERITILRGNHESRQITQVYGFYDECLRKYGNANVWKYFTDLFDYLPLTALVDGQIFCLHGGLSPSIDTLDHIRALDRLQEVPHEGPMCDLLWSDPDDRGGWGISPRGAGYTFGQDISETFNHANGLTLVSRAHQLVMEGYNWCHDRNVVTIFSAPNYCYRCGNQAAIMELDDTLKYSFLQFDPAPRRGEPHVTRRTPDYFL
T1 sequence (P29350 whole entry): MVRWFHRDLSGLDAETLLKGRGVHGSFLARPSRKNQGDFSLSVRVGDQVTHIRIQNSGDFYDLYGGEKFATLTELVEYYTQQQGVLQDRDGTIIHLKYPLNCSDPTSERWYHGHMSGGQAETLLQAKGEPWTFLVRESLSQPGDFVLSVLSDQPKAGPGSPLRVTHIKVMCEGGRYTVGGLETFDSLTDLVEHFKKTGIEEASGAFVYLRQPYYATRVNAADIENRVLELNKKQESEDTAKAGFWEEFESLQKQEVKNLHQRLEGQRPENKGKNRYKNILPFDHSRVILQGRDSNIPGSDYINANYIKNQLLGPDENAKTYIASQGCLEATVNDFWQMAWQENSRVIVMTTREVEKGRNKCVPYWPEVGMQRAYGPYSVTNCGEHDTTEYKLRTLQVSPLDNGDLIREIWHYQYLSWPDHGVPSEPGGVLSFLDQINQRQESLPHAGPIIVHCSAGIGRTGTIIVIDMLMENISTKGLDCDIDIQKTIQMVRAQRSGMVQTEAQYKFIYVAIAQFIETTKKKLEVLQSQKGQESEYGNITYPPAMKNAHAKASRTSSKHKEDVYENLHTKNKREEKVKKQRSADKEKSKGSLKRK

[O]=[V]1[O]C(c2ccc(Cl)cc2)=NN=Cc2cc(Br)ccc2[O]1.c1cnc2c(c1)ccc1cccnc12 [VC050, [VO(L11)(phen)]]
Inhibition of PP2A, percentage inhibition of control ± SD (PP2A; 1 µM): 24 ± 3%
Inhibition of PP2A, percentage inhibition of control ± SD (PP2A; 10 µM): 51 ± 4%
IC50 (SHP1): 657 nM
Inhibition of SHP1, percentage of inhibition of the control (SHP1): 53%
Log IC50 ± SD SHP1 (SHP1): −6.18 ± 0.03
Inhibition of CDC25A, percentage inhibition of control ± SD (CDC25A; 1 µM): 12 ± 8%
Inhibition of CDC25A, percentage inhibition of control ± SD (CDC25A; 10 µM): 38 ± 1%
IC50 (SHP2): 273 nM
Inhibition of SHP2, percentage of inhibition of the control (SHP2): 57%
Inhibition of PTP1B, percentage of inhibition of the control (PTP1B): 25%
Log IC50 ± SD PTP1B (PTP1B): −5.37 ± 0.03
IC50 (PTP1B; read-out: IC50 PTP1B): 4260 nM
IC50 (LAR): 1710 nM
Inhibition of LAR, percentage of inhibition of the control (LAR): 19%

CC(CC(=S)Nc1ccccc1)=NC(Cc1c[nH]c2ccccc12)C(=O)[O][V](=[O])([Cl])[Cl] (stereo not drawn) [VC054, [VOCl2(L1)]·1.5Et2O ·6.5HCl]
Inhibition of PP2A, percentage inhibition of control ± SD (PP2A; 1 µM): 41 ± 15%
Inhibition of PP2A, percentage inhibition of control ± SD (PP2A; 10 µM): 75 ± 7%
Inhibition of SHP1, percentage of inhibition of the control (SHP1): 84%
Log IC50 ± SD SHP1 (SHP1): −7.56 ± 0.02
Inhibition of CDC25A, percentage inhibition of control ± SD (CDC25A; 1 µM): 51 ± 2%
Inhibition of CDC25A, percentage inhibition of control ± SD (CDC25A; 10 µM): 65 ± 3%
Cell viability of myocytes C2C12, % of the control (myocytes C2C12): 84 ± 8%
Inhibition of SHP2, percentage of inhibition of the control (SHP2): 87%
Inhibition of PTP1B, percentage of inhibition of the control (PTP1B): 78%
Log IC50 ± SD PTP1B (PTP1B): −6.85 ± 0.01
IC50 (PTP1B; read-out: IC50 PTP1B): 141 nM
IC50 (PTP1B; read-out: IC50 for PTP1B): 140 nM
IC50 (LAR): 112 nM
Inhibition of LAR, percentage of inhibition of the control (LAR): 67%

C1CCOC1.CSCCC1C(=O)[O][V](=[O])([Cl])([Cl])[N]1C(C)=CC(=S)Nc1ccccc1.Cl (stereo not drawn) [VC073, [VOCl2(L4)]·1.5THF·3HCl]
Inhibition of SHP1, percentage of inhibition of the control (SHP1): 82%
Inhibition of SHP2, percentage of inhibition of the control (SHP2): 86%
Inhibition of PTP1B, percentage of inhibition of the control (PTP1B): 74%
Inhibition of LAR, percentage of inhibition of the control (LAR): 63%

ammonium heptamolybdate [(NH4)6Mo7O24, reference compound]
Inhibition of PP2A, percentage inhibition of control ± SD (PP2A; 1 µM): 18 ± 2%
Inhibition of PP2A, percentage inhibition of control ± SD (PP2A; 10 µM): 53 ± 3%
IC50 (SHP1): 26 nM
Inhibition of SHP1, percentage of inhibition of the control (SHP1): 40%
Log IC50 ± SD SHP1 (SHP1): −7.59 ± 0.13
Inhibition of CDC25A, percentage inhibition of control ± SD (CDC25A; 1 µM): 34 ± 1%
Inhibition of CDC25A, percentage inhibition of control ± SD (CDC25A; 10 µM): 51 ± 1%
IC50 (SHP2): 26 nM
Inhibition of SHP2, percentage of inhibition of the control (SHP2): 47%
Log IC50 ± SD SHP2 (SHP2; logarithm of IC50): −7.58 ± 0.04
Inhibition of PTP1B, percentage of inhibition of the control (PTP1B): 33%
Log IC50 ± SD PTP1B (PTP1B): −7.24 ± 0.06
IC50 (PTP1B; read-out: IC50 PTP1B): 58 nM
IC50 (LAR): 38 nM
Inhibition of LAR, percentage of inhibition of the control (LAR): 28%
Log IC50 ± SD LAR (LAR; logarithm of IC50): −7.42 ± 0.04
